Source: US20050164234A1, “Methods of using mammalian RNase H and compositions thereof” (priority 1997, published 2005)
Like-named read-outs stand apart in the source and are kept apart here.

What was measured:
[1] = tested on: 17 nucleotide long RNA/DNA heteroduplex; assay: Initial cleavage rates of RNA/DNA heteroduplex by wild-type and mutant human RNase H1 proteins; format: biochemical; conditions: 0.5 ng enzyme, 37° C., average of n≧3; detection limit = <1% of heteroduplex substrate cleaved over 60 min
Source text: The oligoribonucleotides were synthesized on a PE-ABI 380B synthesizer using 5′-O-silyl-2′-O-bis(2-acetoxyethoxy)methyl ribonucleoside phosphoramidites and procedures described elsewhere. Scaringe et al., 1998, J. Am. Chem. Soc. 120, 11820-11821/The oligoribonucleotides were purified by reverse-phase HPLC. The DNA oligonucleotides were synthesized on a PE-ABI 380B automated DNA synthesizer and standard phosphoramidite chemistry. The DNA oligonucleotides were purified by precipitation 2 times out of 0.5 M NaCl with 2.5 volumes of ethyl alcohol.
The RNA substrate is 5′-end-labeled with ^32P using 20 u of T4 polynucleotide kinase (Promega, Wis.), 120 pmol (7000 Ci/mmol) [γ-^32P]ATP (ICN, CA), 40 pmol RNA, 70 mM tris, pH 7.6, 10 mM MgCl2 and 50 mM DTT. The kinase reaction is incubated at 37° C. for 30 min. The labeled oligoribonucleotide was purified by electrophoresis on a 12% denaturing polyacrylamide gel. The specific activity of the labeled oligonucleotide is approximately 3000 to 8000 cpm/fmol.
The heteroduplex substrate was prepared in 100 μL containing 50 nM unlabeled oligoribonucleotide, 10^5 cpm of ^32P labeled oligoribonucleotide, 100 nM complementary oligodeoxynucleotide and hybridization buffer [20 mM tris, pH 7.5, 20 mM KCl]. Reactions were heated at 90° C. for 5 min, cooled to 37° C. and 60 u of Prime RNase Inhibitor (5 Prime→3 Prime, CO) and MgCl2 at a final concentration of 1 mM were added. Hybridization reactions were incubated 2-16 h at 37° C. and β-mercaptoethanol (BME) was added at final concentration of 20 mM.
The heteroduplex substrate was digested with 0.5 ng human RNase H1 at 37° C. A 10 μl aliquot of the cleavage reaction was removed at time points ranging from 2-120 min and quenched by adding 5 μL of stop solution (8 M urea and 120 mM EDTA). The aliquots were heated at 90° C. for two min, resolved in a 12% denaturing polyacrylamide gel and the substrate and product bands were quantitated on a Molecular Dynamics PhosphorImager. The concentration of the converted product was plotted as a function of time. The initial cleavage rate was obtained from the slope (mole RNA cleaved/min) of the best-fit line for the linear portion of the plot, which comprises, in general <10% of the total reaction and data from at least five time points.
The initial cleavage rates (V0) were determined for the human RNase H1 enzyme and the mutant proteins using a 17 nucleotide long RNA/DNA heteroduplex, (Table 5).
Initial cleavage rates were determined as described in above. The initial cleavage rates are an average of n≧3 measurements. *Detection limit=cleavage rates resulting in <1% of the heteroduplex substrate over 60 min.

[2] = target: DNA/2′F heteroduplex; assay: Binding affinity of RNase H1 proteins by inhibition analysis with noncleavable heteroduplex
Experimental: Binding affinities were determined by inhibition analysis. Lima and Crooke, 1997, Biochemistry 36, 390-398. The RNA-DNA heteroduplex was prepared as described above except in a final volume of 60 μL and with the concentration of the heteroduplex ranging from 10 nM to 500 nM. The non-cleavable heteroduplex substrate was prepared in 60 μL of hybridization buffer containing equimolar concentrations of oligodeoxynucleotide and complementary 2′-fluoro modified oligonucleotide in excess of the RNA-DNA hybrid. The DNA-2′-fluoro duplex was added to the RNA-DNA duplex and the combined reaction was digested with human RNase H1 as described for the determination of initial rates. The reactions were quenched, analyzed and quantitated as described for the determination of initial rates.
The binding affinities of human RNase H1 and the RNase H1[ΔI-II] mutant were determined indirectly using a competition assay as previously described. Lima and Crooke, 1997, Biochemistry 36, 390-398. Briefly, the cleavage rate of the RNA/DNA heteroduplex was determined at a variety of substrate concentrations in both the presence and absence competing noncleavable DNA/2′F heteroduplex.

[3] = tested on: RNA/DNA substrate; assay: RNase H activity assay of renatured recombinant human RNase H1; format: biochemical; conditions: 10 ng purified renatured enzyme, 2 hours
[4] = target: DNA/2′F heteroduplex; conditions: derived from previously reported data, Lima and Crooke (1997); cited from earlier work

Molecule | V0 [1] | Kd ([2]; for DNA/2′F heteroduplex, from ≧2 slopes of Lineweaver-Burk analysis) | binding affinity for heteroduplex substrate tighter than RNase H1[ΔI-II] mutant ([2]; wild-type versus ΔI-II) | cleavage of the substrate [3] | Kd [4]
Wild-type RNase H1: cloned and expressed human RNase H1, 286 amino acids, his-tag fusion protein; SEQ ID NO: 1 | 658 ± 130 pM/min | 75 nM | < 2 fold | 40% | 
E. coli RNase H1: E. coli RNase H1 enzyme, 155 amino acids, literature comparator (protein) MLKQVEIFTDGSCLGNPGPGGYGAILRYRGREKTFSAGYTRTTNNRMELMAAIVALEALKEHCEVILSTDSQYVRQGITQWIHNWKKRGWKTADKKPVKNVDLWQRLDAALGQHQIKWEWVKGHAGHPENERCDELARAAAMNPTLEDTGYQVEV |  |  |  |  | 1600 nM
